From PubChem BioAssay AID2060513 (Molecular Pharmacology Branch, DTP, NCI, 2025)

Test system: 299254-011-R-J1-PDC complex spheroids viability
Test: Anticancer human tumor 299254-011-R-J1-PDC patient-derived melanoma cell line growth inhibition [GQUAD]
Settings: for IC50: curve of first compound; for viability, T/C: stronger effect = lower value
Method in brief: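 Multi-cell-type spheroids of tumor cells with HUVEC and mesenchymal stem cells, treated with drug combinations. Concentrations descend in half-log steps from near clinical Cmax, or from 10 microM where Cmax is unknown; viability read-out.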

[1] = second compound 0.0316 µM, first compound 0.0316 µM
[2] = second compound 0.0316 µM, first compound 0.316 µM
[3] = second compound 0.1 µM, first compound 0.0316 µM
[4] = second compound 0.1 µM, first compound 0.316 µM
[5] = second compound 0.316 µM, first compound 0.0316 µM
[6] = second compound 0.316 µM, first compound 0.316 µM
[7] = second compound 1 µM, first compound 0.0316 µM
[8] = second compound 1 µM, first compound 0.316 µM
[9] = second compound 3.16 µM, first compound 0.0316 µM
[10] = second compound 3.16 µM, first compound 0.316 µM
[11] = second compound 10 µM, first compound 0.0316 µM
[12] = second compound 10 µM, first compound 0.316 µM
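Note: spheroids exposed to the agents for seven days before readout.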
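Throughout, for viability, T/C: percent viability relative to DMSO vehicle control wells = 100%.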

For `C=CC(=O)N1CCN(c2nc(=O)n(-c3c(C)ccnc3C(C)C)c3nc(-c4c(O)cccc4F)c(F)cc23)C(C)C1` (centres undefined) + Cc1cnc(CNC(=O)c2c(=O)c3ccc(N4CCCN(C)CC4)nc3n3c2sc2ccccc23)cn1, the IC50 (second compound 0.0316 µM) was > 10000 nM, the IC50 (second compound 0.1 µM) was > 10000 nM and the IC50 (second compound 0.316 µM) was > 10000 nM. The IC50 (second compound 1 µM) was > 10000 nM, the IC50 (second compound 3.16 µM) was > 10000 nM and the IC50 (second compound 10 µM) was < 31.6 nM. It also gave a viability, T/C [1] of 73.3%, a viability, T/C (second compound 0.0316 µM, first compound 0.1 µM) of 71.1% and a viability, T/C [2] of 69.3%. The viability, T/C (second compound 0.0316 µM, first compound 1 µM) was 58.3%, the viability, T/C (second compound 0.0316 µM, first compound 3.16 µM) was 59.4% and the viability, T/C (second compound 0.0316 µM, first compound 10 µM) was 76.8%. It also gave a viability, T/C [3] of 67.8%, a viability, T/C (second compound 0.1 µM, first compound 0.1 µM) of 74.9% and a viability, T/C [4] of 64.1%. For the same compound, the viability, T/C (second compound 0.1 µM, first compound 1 µM) was 57.6%, the viability, T/C (second compound 0.1 µM, first compound 3.16 µM) was 60.7% and the viability, T/C (second compound 0.1 µM, first compound 10 µM) was 78.2%. It also gave a viability, T/C [5] of 93%, a viability, T/C (second compound 0.316 µM, first compound 0.1 µM) of 72.9% and a viability, T/C [6] of 60.8%. The viability, T/C (second compound 0.316 µM, first compound 1 µM) was 67.4%, the viability, T/C (second compound 0.316 µM, first compound 3.16 µM) was 65.1% and the viability, T/C (second compound 0.316 µM, first compound 10 µM) was 70.3%. It also gave a viability, T/C [7] of 73.8%, a viability, T/C (second compound 1 µM, first compound 0.1 µM) of 65.3% and a viability, T/C [8] of 65.2%. The viability, T/C (second compound 1 µM, first compound 1 µM) was 67.3%, the viability, T/C (second compound 1 µM, first compound 3.16 µM) was 83.7% and the viability, T/C (second compound 1 µM, first compound 10 µM) was 61.2%. It also gave a viability, T/C [9] of 76.3%, a viability, T/C (second compound 3.16 µM, first compound 0.1 µM) of 78.9% and a viability, T/C [10] of 63.5%. The viability, T/C (second compound 3.16 µM, first compound 1 µM) was 69.8%, the viability, T/C (second compound 3.16 µM, first compound 3.16 µM) was 74.6% and the viability, T/C (second compound 3.16 µM, first compound 10 µM) was 52.9%. For the same compound, the viability, T/C [11] was 0.4%, the viability, T/C (second compound 10 µM, first compound 0.1 µM) was 0.46% and the viability, T/C [12] was 8.66%. It also gave a viability, T/C (second compound 10 µM, first compound 1 µM) of 0.41%, a viability, T/C (second compound 10 µM, first compound 3.16 µM) of 0.41% and a viability, T/C (second compound 10 µM, first compound 10 µM) of 0.36%.

In the case of `CCc1c2c(nc3ccc(O)cc13)-c1cc3c(c(=O)n1C2)COC(=O)[C@]3(O)CC` + Cc1cnc(CNC(=O)c2c(=O)c3ccc(N4CCCN(C)CC4)nc3n3c2sc2ccccc23)cn1, the IC50 (second compound 0.0316 µM) is reported as > 316 nM, the IC50 (second compound 0.1 µM) is reported as > 316 nM and the IC50 (second compound 0.316 µM) is reported as > 316 nM. For the same compound, the IC50 (second compound 1 µM) was > 316 nM, the IC50 (second compound 3.16 µM) was 142 nM and the IC50 (second compound 10 µM) was < 0.999 nM. The viability, T/C (second compound 0.0316 µM, first compound 0.000999 µM) was 102%, the viability, T/C (second compound 0.0316 µM, first compound 0.00316 µM) was 95.6% and the viability, T/C (second compound 0.0316 µM, first compound 0.00999 µM) was 68.3%. For the same compound, the viability, T/C [1] was 70.9%, the viability, T/C (second compound 0.0316 µM, first compound 0.0999 µM) was 76.7% and the viability, T/C [2] was 62.3%. It also gave a viability, T/C (second compound 0.1 µM, first compound 0.000999 µM) of 95.5%, a viability, T/C (second compound 0.1 µM, first compound 0.00316 µM) of 107% and a viability, T/C (second compound 0.1 µM, first compound 0.00999 µM) of 76.5%. For the same compound, the viability, T/C [3] was 71.2%, the viability, T/C (second compound 0.1 µM, first compound 0.0999 µM) was 65.5% and the viability, T/C [4] was 60.2%. For the same compound, the viability, T/C (second compound 0.316 µM, first compound 0.000999 µM) was 93.8%, the viability, T/C (second compound 0.316 µM, first compound 0.00316 µM) was 95.4% and the viability, T/C (second compound 0.316 µM, first compound 0.00999 µM) was 72.4%. The viability, T/C [5] was 67.8%, the viability, T/C (second compound 0.316 µM, first compound 0.0999 µM) was 68.2% and the viability, T/C [6] was 60.5%. The viability, T/C (second compound 1 µM, first compound 0.000999 µM) was 76.4%, the viability, T/C (second compound 1 µM, first compound 0.00316 µM) was 79.8% and the viability, T/C (second compound 1 µM, first compound 0.00999 µM) was 77.5%. It also gave a viability, T/C [7] of 74.8%, a viability, T/C (second compound 1 µM, first compound 0.0999 µM) of 54.6% and a viability, T/C [8] of 63.4%. The viability, T/C (second compound 3.16 µM, first compound 0.000999 µM) was 77.6%, the viability, T/C (second compound 3.16 µM, first compound 0.00316 µM) was 68% and the viability, T/C (second compound 3.16 µM, first compound 0.00999 µM) was 64%. For the same compound, the viability, T/C [9] was 59%, the viability, T/C (second compound 3.16 µM, first compound 0.0999 µM) was 56% and the viability, T/C [10] was 43%. For the same compound, the viability, T/C (second compound 10 µM, first compound 0.000999 µM) was 0.47%, the viability, T/C (second compound 10 µM, first compound 0.00316 µM) was 20.1% and the viability, T/C (second compound 10 µM, first compound 0.00999 µM) was 34.8%. The viability, T/C [11] was 11.9%, the viability, T/C (second compound 10 µM, first compound 0.0999 µM) was 0.39% and the viability, T/C [12] was 0.32%.
